{
  "source": "PubChem BioAssay AID743348",
  "about": "(Broad Institute, 2014)",
  "note": "Activity calls are given as the source filed them.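 Rule for the calls: active = AC50 for ATP loss at or below twice the top valid dose tested, with the signal falling; inconclusive = flat fit showing moderate loss, or a poor-quality fit; inactive = the rest, including rises in signal.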",
  "data": [
    {"test_system": "not listed separately", "assay": "cell viability loss in HepG2 cells – ATP luminescence, dry powder, set 10, cytotoxicity control, dose response (AID 743348)", "conditions": "HepG2 viability, CellTiter-Glo ATP luminescence, 72 h; at 26 µM (top of the series)", "values": [
      {"smiles": "CC(=O)c1ccc(N2CC3CC2CN3C(=O)c2ccc3c(c2)OCO3)cc1", "note": "(stereo not given)", "activity change, negative = cytotoxicity": "36.6% (inactive)"},
      {"smiles": "CC(=O)c1ccc(N2CCN(C(=O)c3ccc4c(c3C)OCO4)CC2)cc1", "activity change, negative = cytotoxicity": "0.898% (inactive)"},
      {"smiles": "COc1cc(C(=O)N2CCN(c3ccc(C(C)=O)cc3)CC2)cc2c1OCO2", "activity change, negative = cytotoxicity": "12% (inactive)"},
      {"smiles": "O=C(c1ccc2c(c1)OCO2)N1CCN(c2ccc(S(=O)(=O)C(F)(F)F)cc2)CC1", "activity change, negative = cytotoxicity": "24.8% (inactive)"},
      {"smiles": "CC(=O)c1ccc(N2CCN(C(=O)c3ccc4snnc4c3)CC2)cc1", "activity change, negative = cytotoxicity": "19.1% (inactive)"},
      {"smiles": "CC(=O)c1ccc(N2CCN(C(=O)c3cc4c(cn3)OCO4)CC2)cc1", "activity change, negative = cytotoxicity": "-2.87% (inactive)"},
      {"smiles": "CC(=O)c1ccc(N2CCN(C(=O)c3cc4c(cc3Cl)OCO4)CC2)cc1", "activity change, negative = cytotoxicity": "28.5% (inactive)"},
      {"smiles": "CC(=O)c1ccc(N2CCN(C(=O)c3cc4c(cc3C)OCO4)CC2)cc1", "activity change, negative = cytotoxicity": "31.1% (inactive)"},
      {"smiles": "CC(=O)c1ccc(N2CCCN(C(=O)c3ccc4c(c3)OCO4)CC2)cc1", "activity change, negative = cytotoxicity": "11.7% (inactive)"},
      {"smiles": "CC(=O)c1ccc(N2CCN(C(=O)c3ccc4c(c3)OCO4)CC2)cc1", "activity change, negative = cytotoxicity": "-3.33% (inactive)"},
      {"smiles": "O=C(c1ccc2c(c1)OCO2)N1CCN(c2ccc(C(F)(F)F)cc2)CC1", "activity change, negative = cytotoxicity": "7.07% (inactive)"},
      {"smiles": "CS(=O)(=O)c1ccc(N2CCN(C(=O)c3ccc4c(c3)OCO4)CC2)cc1", "activity change, negative = cytotoxicity": "-7.24% (inactive)"},
      {"smiles": "O=C(c1ccc2c(c1)OCO2)N1CCN(c2ccc(S(=O)(=O)C(F)F)cc2)CC1", "activity change, negative = cytotoxicity": "27.7% (inactive)"},
      {"smiles": "N#Cc1ccc(N2CCN(C(=O)c3ccc4c(c3)OCO4)CC2)cc1", "activity change, negative = cytotoxicity": "-5.11% (inactive)"},
      {"smiles": "CC(=O)c1ccc(N2CCN(C(=O)c3ccc(Cl)c(Cl)c3)CC2)cc1", "activity change, negative = cytotoxicity": "55.4% (inactive)"},
      {"smiles": "CC(=O)c1ccc(N2CCN(C(=O)c3ccc4c(c3)OC(C)(C)O4)CC2)cc1", "activity change, negative = cytotoxicity": "-6.05% (inactive)"},
      {"smiles": "CC(=O)c1ccc(N2CCN(C(=O)c3cccc4c3OCO4)CC2)cc1", "activity change, negative = cytotoxicity": "14.1% (inactive)"},
      {"smiles": "CC(=O)c1ccc(N2CCN(C(=O)Nc3ccc4c(c3)OCO4)CC2)cc1", "activity change, negative = cytotoxicity": "-12% (inactive)"},
      {"smiles": "CC(=O)c1ccc(N2CCN(C(=O)c3ccc4ocnc4c3)CC2)cc1", "activity change, negative = cytotoxicity": "10.9% (inactive)"},
      {"smiles": "COc1ccc(C(=O)N2CCN(c3ccc(C(C)=O)cc3)CC2)cc1OC", "activity change, negative = cytotoxicity": "9.73% (inactive)"},
      {"smiles": "O=C(c1ccc2c(c1)OCO2)N1CCN(c2ccc(OC(F)(F)F)cc2)CC1", "activity change, negative = cytotoxicity": "-0.808% (inactive)"},
      {"smiles": "COc1cc2c(cc1C(=O)N1CCN(c3ccc(C(C)=O)cc3)CC1)OCO2", "activity change, negative = cytotoxicity": "7.72% (inactive)"},
      {"smiles": "CC(=O)c1ccc(N2CCN(C(=O)c3cc(Cl)c4c(c3)OCO4)CC2)cc1", "activity change, negative = cytotoxicity": "6.73% (inactive)"},
      {"smiles": "CC(=O)c1ccc(N2CCN(C(=O)c3ccc4c(c3)OC(F)(F)O4)CC2)cc1", "activity change, negative = cytotoxicity": "14.2% (inactive)"}
    ]},
    {"test_system": "HepG2 viability, CellTiter-Glo ATP luminescence, 72 h", "assay": "cell viability loss in HepG2 cells – ATP luminescence, dry powder, set 10, cytotoxicity control, dose response (AID 743348)", "conditions": "not given", "values": [
      {"smiles": "CC(=O)c1ccc(N2CCN(S(=O)(=O)c3ccc4c(c3)OCO4)CC2)cc1", "AC50": "> 52 µM (inactive)"}
    ]}
  ]
}
